These results are taken from US8492103B2 (priority 2011, dated 2013).

Entries after “also recorded” stand apart in the source; their conditions may differ. Read-outs that look alike come from different tables or passages of the source.

The test system of experiment [1] is antibodies from dogs infected with E. chaffeensis. Format: binding. Particulars: ELISA, dog sera. In general terms: An ELISA detects its analyte on a solid surface through an enzyme-linked reagent.
Experiment [2] concerns antibodies from dogs infected with E. canis. Format: binding. Particulars: ELISA, dog sera.
For experiment [3], the system named is Ehrlichia antibody from dogs infected with E. ewingii. Format: binding. As to conditions: ELISA; dog sera.
For experiment [4], the system named is Ehrlichia antibody in human serum. Format: binding. Particulars: ELISA; humans infected with E. chaffeensis. As to the method:
ELISA plates (Nunc, Maxisorp) were coated with P28-1 and incubated with sera of humans (infected with E. chaffeensis) (1:100) (1 hour-RT) followed by incubation with goat anti-human AP (1:1500).

The test system of experiment [5] is antibodies from mice infected with Rickettsia. Format: binding. Particulars: ELISA; R. conorii, R. australis, R. akari.
Experiment [6] has as its system antibodies from mice infected with Orientia. Format: binding. As to conditions: ELISA; O. tsutsugamushi.
In another experiment the test system is E. muris. The experiment can be described thus: Immunization and Ehrlichia muris challenge, ehrlichial load by quantitative real-time PCR. Format: in vivo, C57BL/6 mice. As to conditions: for protection against E. muris challenge as determined by bacterial load (quantitative real time-PCR): immunized mice; for bacterial load in vaccinated mice compared to unvaccinated controls: spleen and liver, days 7 and 14 after bacterial infection; for protection against Ehrlichia infection (overall statement): vaccinated mice challenged with E. muris. How it is done:
Since the P28-1955-75 and Ehrlichia Hsp6043-63 epitope peptides induced antibodies, the inventors reasoned that they also could provide protection against Ehrlichia thereby functioning as potential vaccine candidates. […] The spleen and liver were collected at different days after bacterial challenge and the bacterial copy number determined by quantitative real time PCR.
(§1) Mice were immunized i.p., with two doses of 50 micrograms (0.02 μM) of each P28-1955-75 peptide or Ehrlichia Hsp6043-63 peptides conjugated to KLH 15 days apart (the first immunization with complete Freund's adjuvant and the second immunization with incomplete Freund's adjuvant) (3 mice per group). Thirty days after the first immunization mice were challenged intraperitoneally (i.p.) with a high dose of E. muris (˜1×10^4 bacterial genomes) and observed daily. Controls included unchallenged naive mice as well as unvaccinated mice injected with E. muris alone. Mice were sacrificed on days 7, 14 and 21 after Ehrlichia challenge, and spleen and liver were harvested and sera collected. The ehrlichial load in spleen and liver was determined by quantitative RT-PCR. Sera were assayed for determination of antibody titers.
The bacterial burdens in the organs were determined by quantitative real-time PCR. The Ehrlichia-specific dsb gene, which encodes a disulfide bond-forming protein (GenBank accession #AY236484 and AY236485), was selected as the target gene for amplification of E. muris. The sequences of the primers and probes and thermal cycle conditions were described previously (Stevenson et al. (2006) Infect Immun 74:4856-4864). PCR analyses were considered negative for ehrlichial DNA if the critical threshold values (Ct) exceeded 40 cycles. Expression of the ehrlichial load was normalized relative to the total DNA. Each sample was run in duplicate.
In general terms: Quantitative PCR measures a nucleic acid by following its amplification.

The test system of experiment [7] is Ehrlichia-specific IgG antibody. The experiment can be described thus: Antibody response by ELISA in vaccinated mice after E. muris challenge. Format: in vivo, C57BL/6 mice. Particulars: for antibody levels in vaccinated mice, day 14 compared to day 7: after E. muris challenge; for IgG antibody response after E. muris challenge, vaccinated compared to unvaccinated E. muris-infected mice: blood on days 7 and 14. How it is done:
ELISA plates (Nunc, Maxisorp) were coated with P28-1 and incubated with sera of mice (1:100) vaccinated with Ehrlichia Hsp60 and challenged with E. muris. Following incubation with mice sera they were incubated with goat anti-mouse AP (1:500).
Immunization with vaccines stimulates the immune system to produce a robust antibody response that can provide protection against pathogens. To determine the antibody responses against the Ehrlichia Hsp6043-63 peptide vaccine, blood was collected from vaccinated mice on days 7 and 14 and performed ELISA. […] However, there was no difference between the antibody levels in vaccinated mice between days 7 and 14. The Ehrlichia Hsp6043-63-specific antibody levels in infected unvaccinated mice were highest on day 14 compared to day 7 (FIG. 6A). To determine the antibody responses against the P28-1955-75 peptide vaccine, we collected blood from immunized mice on days 7 and 14 and subjected the samples to ELISA.
as §1

In experiment [8] the test system is antibody isotypes IgG1, IgG2c, IgG2b, IgG3, IgM. The experiment can be described thus: Measurement of antibody subclasses (isotypes) by ELISA in vaccinated mice after challenge. The class given is in vivo, C57BL/6 mice. As to conditions: day 14 post challenge. How it is done:
as §1
ELISA was performed to measure the concentration of E. muris specific IgG subclass antibodies as described previously [Ismail et al. (2004) J Immunol 172:1786-1800; McBride et al. (2003) Infect Immun 71: 2516-2524). Briefly, the ELISA plates were coated with 50 μl of peptide (Ehrlichia Hsp6043-63) or recombinant P28-19 protein at a concentration of 4 μg/ml in PBS. Serum samples were diluted 1:100, and 100 μl of each sample was added to peptide-coated wells and incubated at 25° C. for 1 h. […] When peptides conjugated to KLH were used as a probe in ELISA, KLH was used as control and the results subtracted from positive values.

Experiment [9] deals with IFN-γ-producing CD4+ T cells in the spleen. Description: Flow cytometry of peptide-specific IFN-γ-producing memory CD4+ T cells in splenocytes of E. muris-infected mice. The class given is cell-based. As to conditions: day 45 after infection; splenocytes stimulated in vitro with the peptide for 18 h. As to the method: Flow cytometry was used to determine if Ehrlichia Hsp6043-63 and P28-19 specific memory T cells are induced during E. muris infection.
The frequencies of antigen specific IFN-γ-producing T cells in the spleens were determined by flow cytometric analysis. […]
After blocking Fc receptors with anti-Fc receptor mAbs (BD PharMingen, San Diego, Calif.) in FACS buffer (Dulbecco's PBS without Mg^2+ or Ca^2+ containing 1% fetal calf serum and 0.09% sodium azide) at 4° C. for 15 minutes, cells were labeled with fluorochrome-conjugated mAbs (BD Biosciences Pharmingen, San Diego, Calif.) specific for mouse CD3 (APC; clone 17A2), and CD4 (FITC; clone RM4-5), and CD8 (PerCP-Cy 5.5; clone 53-6.7). […] Data were analyzed using FCS Express software (De Novo Software, Los Angeles, Calif.). Dot plots were gated on CD3+ T cells and the frequencies and absolute numbers of antigen-specific IFN-γ-producing CD4+ T cells in the spleens were determined after subtracting the background staining of unstimulated cells in wells containing medium only.

With “akeeknataktfglkq (AKEEKNATAKTFGLKQ; listed as Ehrlichia muris) [P28-1955-75 peptide, peptide of E. muris outer membrane protein P28-19, amino acids 55-75]”, the entries for the “reaction with / detection of antibodies from dogs infected with E. chaffeensis” value in experiment [1] and in experiment [1] (listed as P28 peptide) were “reacted” and “very sensitive”, respectively. Moreover, the “reaction with / detection of antibodies from dogs infected with E. canis” value is on record as “reacted” in experiment [2] and “very sensitive” in experiment [2] (listed as P28 peptide). Moreover, the “detection of Ehrlichia antibodies of dogs infected with E. ewingii” value in [3] is on record as “very sensitive”. Further, the “detection of Ehrlichia antibody in human serum” value in experiment [4] is on record as “sensitive”. Also, the “cross-reaction with antibodies from mice infected with Rickettsia” value in [5] is listed as “did not react”. Moreover, the “cross-reaction with antibodies from mice infected with Orientia” value in experiment [6] is “did not react”. Besides, in the experiment with E. muris (days 7 and 14 after E. muris challenge), the “protection against E. muris challenge as determined by bacterial load (quantitative real time-PCR)” value is reported as “protected”. The “bacterial load in vaccinated mice compared to unvaccinated controls” value with E. muris was “lower bacterial load”. In addition, in the experiment on E. muris, the “protection against Ehrlichia infection (overall statement)” value is reported as “provided protection”. Besides, in experiment [7], the “antibody levels in vaccinated mice, day 14 compared to day 7” value is “higher on day 14”. Also, the “IgG antibody response after E. muris challenge, vaccinated compared to unvaccinated E. muris-infected mice” value in experiment [7] is listed as “higher IgG antibody levels”. The “antibody isotype levels in vaccinated compared to unvaccinated mice after bacterial challenge” value in experiment [8] is “higher levels of IgG1, IgG2b, IgG2c, and IgG3”; in experiment [8] (listed as P28-1955-75) it was “higher levels of IgG1, IgG2b, IgG3 and IgM”. The “peptide-specific IFN-γ-producing CD4+ T cells in spleen of E. muris-infected mice compared to naive uninfected mice” value in experiment [9] was “significantly higher frequencies and absolute numbers; also recorded: higher frequency”.
As for “ygapeitkdgykviksikped (YGAPEITKDGYKVIKSIKPED; listed as Ehrlichia muris) [Ehrlichia Hsp6043-63 peptide]”, the “reaction with / detection of antibodies from dogs infected with E. chaffeensis” value in experiment [1] is on record as “reacted”. For the same substance, the “reaction with / detection of antibodies from dogs infected with E. canis” value in experiment [2] is “reacted”. The “cross-reaction with antibodies from mice infected with Rickettsia” value in experiment [5] was “did not react”. The “cross-reaction with antibodies from mice infected with Orientia” value in experiment [6] is “did not react”. For the same substance, the “protection against E. muris challenge as determined by bacterial load (quantitative real time-PCR)” value in the experiment on E. muris (day 14 after E. muris challenge) was “protected”. In the experiment with E. muris, the “bacterial load in vaccinated mice compared to unvaccinated controls” value is reported as “lower bacterial load” and the “protection against Ehrlichia infection (overall statement)” value is on record as “provided protection”. Also, in [7], the “antibody levels in vaccinated mice, day 14 compared to day 7” value is on record as “no difference” and the “IgG antibody response after E. muris challenge, vaccinated compared to unvaccinated E. muris-infected mice” value was “higher IgG antibody levels”. Moreover, the “antibody isotype levels in vaccinated compared to unvaccinated mice after bacterial challenge” value in [8] was “higher levels of IgG1, IgG2c, IgG2b, and IgG3”. Also, the “antibody isotype levels in vaccinated compared to unvaccinated mice after bacterial challenge” value in experiment [8] (listed as Ehrlichia Hsp6043-63) was “higher levels of IgG1, IgG2c, IgG2b, IgG3 and IgM”. In experiment [9], the “peptide-specific IFN-γ-producing CD4+ T cells in spleen of E. muris-infected mice compared to naive uninfected mice” value was “significantly higher frequencies and absolute numbers; also recorded: higher frequency”.
